Experimental data reported in ChEMBL document CHEMBL1137871, “Discovery of orally active prostaglandin D2 receptor antagonists” (Bioorg Med Chem Lett, 2004).

Tests used:
[1] = target: T1, Prostaglandin D2 receptor (Homo sapiens, UniProt Q13258); experiment: Ability to inhibit the binding of [3H]PGD-2 radioligand to membranes of CHO cells stably expressing human Prostaglandin D2 receptor; format: cell membranes
T1 sequence (Q13258 whole entry): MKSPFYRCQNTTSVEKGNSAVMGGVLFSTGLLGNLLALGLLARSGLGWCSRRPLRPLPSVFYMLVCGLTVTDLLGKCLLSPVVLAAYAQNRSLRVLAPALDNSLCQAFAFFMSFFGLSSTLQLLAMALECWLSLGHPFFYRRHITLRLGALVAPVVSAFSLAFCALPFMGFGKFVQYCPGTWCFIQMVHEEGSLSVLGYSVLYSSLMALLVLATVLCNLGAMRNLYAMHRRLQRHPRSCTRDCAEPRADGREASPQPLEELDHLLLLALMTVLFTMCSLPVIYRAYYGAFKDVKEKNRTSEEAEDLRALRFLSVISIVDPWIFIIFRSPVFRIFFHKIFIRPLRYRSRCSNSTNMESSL

[2] = target: T1, Prostaglandin D2 receptor; experiment: Effect on the increase in cAMP formation induced by PGD-2 in the presence of bovine serum albumin in CHO cells expressing human Prostaglandin D2 receptor; format: functional, cell-based
[3] = target: Prostaglandin E2 receptor EP2 subtype (Mus musculus, UniProt Q62053); experiment: Ability to inhibit the binding of [3H]-PGD-2 radioligand to membranes of CHO cells stably expressing mouse Prostaglandin E receptor EP2; format: cell membranes
[4] = target: T2, Prostaglandin D2 receptor (Mus musculus, UniProt P70263); experiment: Ability to inhibit the binding of [3H]PGD-2 radioligand to membranes of CHO cells stably expressing mouse Prostaglandin D2 receptor; format: cell membranes
T2 sequence (P70263 whole entry): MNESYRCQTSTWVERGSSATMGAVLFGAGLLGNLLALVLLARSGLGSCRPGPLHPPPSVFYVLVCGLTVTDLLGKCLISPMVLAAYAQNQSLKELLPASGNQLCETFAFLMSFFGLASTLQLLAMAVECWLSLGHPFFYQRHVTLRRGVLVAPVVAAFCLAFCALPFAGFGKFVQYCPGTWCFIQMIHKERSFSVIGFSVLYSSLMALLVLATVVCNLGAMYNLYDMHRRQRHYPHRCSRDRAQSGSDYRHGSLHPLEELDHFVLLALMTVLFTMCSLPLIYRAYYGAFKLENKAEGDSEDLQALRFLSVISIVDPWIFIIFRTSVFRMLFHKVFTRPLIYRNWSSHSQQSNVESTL

[5] = target: T3, Prostaglandin E2 receptor EP3 subtype (Mus musculus, UniProt P30557); experiment: Ability to inhibit the binding of [3H]PGD-2 radioligand to membranes of CHO cells stably expressing mouse Prostaglandin E receptor EP3; format: cell membranes
T3 sequence (P30557 whole entry): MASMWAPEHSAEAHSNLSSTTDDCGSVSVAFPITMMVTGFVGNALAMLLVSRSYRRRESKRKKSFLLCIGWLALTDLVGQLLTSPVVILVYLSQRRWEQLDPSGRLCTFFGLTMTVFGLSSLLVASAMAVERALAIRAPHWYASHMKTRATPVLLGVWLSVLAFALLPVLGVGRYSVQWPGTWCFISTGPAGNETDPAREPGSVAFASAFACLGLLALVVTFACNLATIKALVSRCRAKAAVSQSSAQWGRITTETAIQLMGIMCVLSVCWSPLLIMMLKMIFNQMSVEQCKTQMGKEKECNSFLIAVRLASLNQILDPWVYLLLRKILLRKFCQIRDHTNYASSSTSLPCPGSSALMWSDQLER

[6] = target: T4, Prostaglandin E2 receptor EP1 subtype (Mus musculus, UniProt P35375); experiment: Ability to inhibit the binding of [3H]PGD-2 radioligand to membranes of CHO cells stably expressing mouse Prostaglandin E receptor EP1; format: cell membranes
T4 sequence (P35375 whole entry): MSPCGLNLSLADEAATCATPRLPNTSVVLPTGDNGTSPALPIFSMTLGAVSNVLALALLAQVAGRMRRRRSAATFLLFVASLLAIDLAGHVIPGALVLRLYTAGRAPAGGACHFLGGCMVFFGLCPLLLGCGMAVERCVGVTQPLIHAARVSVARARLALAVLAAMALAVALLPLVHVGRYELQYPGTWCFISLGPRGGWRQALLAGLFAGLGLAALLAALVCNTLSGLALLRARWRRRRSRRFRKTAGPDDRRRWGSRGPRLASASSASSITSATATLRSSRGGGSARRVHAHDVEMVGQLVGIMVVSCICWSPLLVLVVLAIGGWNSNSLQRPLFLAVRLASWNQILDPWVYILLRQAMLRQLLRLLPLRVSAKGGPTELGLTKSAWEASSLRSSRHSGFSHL

[7] = target: Prostaglandin E2 receptor EP4 subtype (Mus musculus, UniProt P32240); experiment: Ability to inhibit the binding of [3H]PGD-2 radioligand to membranes of CHO cells stably expressing mouse Prostaglandin E receptor EP4; format: cell membranes
[8] = target: T2, Prostaglandin D2 receptor; experiment: Effect on the increase in cAMP formation induced by PGD-2 in the presence of bovine serum albumin in CHO cells expressing mouse Prostaglandin D2 receptor; format: functional, cell-based
Cavia porcellus = experiment: inhibitory effect of compound on PGD-2 (0.01%, 20 uL/eye) induced vascular permeability in guinea pig conjunctiva at an oral dose of 0.3 mg/kg

Prostaglandin E2 receptor EP2 subtype, sequence (Q62053 whole entry): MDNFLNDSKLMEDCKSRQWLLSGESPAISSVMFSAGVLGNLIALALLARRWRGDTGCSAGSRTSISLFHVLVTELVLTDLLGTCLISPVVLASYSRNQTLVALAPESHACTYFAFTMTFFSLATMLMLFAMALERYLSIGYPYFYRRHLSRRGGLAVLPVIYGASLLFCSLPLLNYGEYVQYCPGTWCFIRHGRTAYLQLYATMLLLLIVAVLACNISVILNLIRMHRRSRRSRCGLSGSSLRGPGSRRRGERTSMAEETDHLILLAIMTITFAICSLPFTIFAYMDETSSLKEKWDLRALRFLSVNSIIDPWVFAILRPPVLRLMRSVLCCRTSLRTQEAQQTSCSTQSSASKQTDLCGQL
Prostaglandin E2 receptor EP4 subtype, sequence (P32240 whole entry): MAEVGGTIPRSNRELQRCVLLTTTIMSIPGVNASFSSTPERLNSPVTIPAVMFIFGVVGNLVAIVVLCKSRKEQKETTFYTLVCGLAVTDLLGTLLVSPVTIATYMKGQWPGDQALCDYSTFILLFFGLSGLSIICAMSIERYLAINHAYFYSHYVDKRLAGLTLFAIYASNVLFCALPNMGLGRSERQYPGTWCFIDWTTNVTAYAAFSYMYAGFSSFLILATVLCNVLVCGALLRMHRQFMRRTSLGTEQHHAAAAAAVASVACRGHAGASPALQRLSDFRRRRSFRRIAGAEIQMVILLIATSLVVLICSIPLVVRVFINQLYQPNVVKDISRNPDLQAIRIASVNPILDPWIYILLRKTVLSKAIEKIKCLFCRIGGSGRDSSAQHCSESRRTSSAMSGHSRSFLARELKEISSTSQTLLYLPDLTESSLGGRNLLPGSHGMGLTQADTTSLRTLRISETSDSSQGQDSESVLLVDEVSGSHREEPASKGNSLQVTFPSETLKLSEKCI

Row | Compound | Ki [1] | IC50 [2] | Ki [3] | Ki [4] | Ki [5] | Ki [6] | Ki [7] | IC50 [8] | inhibition in vivo at 0.3 mg/kg (Cavia porcellus)
1 | Cc1cc2c(CC(=O)O)cccc2n1C(=O)c1ccc(OC[C@H]2COc3ccccc3O2)cc1 | 0.13 µM | 0.27 µM | 1.3 µM | 0.12 µM | > 10 µM | 2.3 µM | 1.3 µM | – | –
2 | Cc1cc2c(CC(=O)O)cccc2n1C(=O)c1ccc(OCCOc2ccccc2)cc1 | 0.29 µM | 0.25 µM | 0.54 µM | 0.01 µM | > 10 µM | 5.6 µM | > 10 µM | 0.05 µM | –
3 | Cc1cc2c(CC(=O)O)cccc2n1C(=O)c1ccc(OC[C@@H]2COc3ccccc3O2)cc1 | 0.01 µM | 0.03 µM | 0.06 µM | 0.01 µM | > 10 µM | 2 µM | > 10 µM | – | –
4 | Cc1cc2c(CC(=O)O)cccc2n1C(=O)c1ccc(OCCCc2ccccc2)cc1 | – | – | – | 0.17 µM | 3.3 µM | 7.7 µM | 2.1 µM | – | –
5 | Cc1cc2c(CC(=O)O)cccc2n1C(=O)c1ccc(OCC2Cc3ccccc3O2)cc1 (stereo unspecified) | 0.02 µM | 0.03 µM | 0.45 µM | 0.02 µM | 0.98 µM | 7.8 µM | > 10 µM | – | –
6 | Cc1cc2c(CC(=O)O)cccc2n1C(=O)c1ccc(OCC2CCc3ccccc3O2)cc1 (stereo unspecified) | 0.05 µM | 0.03 µM | 0.09 µM | 0.06 µM | > 10 µM | 3.8 µM | 3.1 µM | – | –
7 | CCCCOc1ccc(C(=O)n2c(C)cc3c(CC(=O)O)cccc32)cc1 | – | – | 2 µM | 0.01 µM | 3.3 µM | > 10 µM | > 10 µM | 0.3 µM | –
8 | Cc1cc2c(CC(=O)O)cccc2n1C(=O)c1ccc(OC[C@@H]2CN(C)c3ccccc3O2)cc1 | 0.0035 µM | 0.0012 µM | 0.1 µM | 0.01 µM | 1.7 µM | 6.2 µM | > 10 µM | – | –
9 | Cc1cc2c(CC(=O)O)cccc2n1C(=O)c1ccc(OCCc2ccccc2)cc1 | – | – | 1.3 µM | – | 2.2 µM | 0.4 µM | 1.9 µM | – | –
10 | Cc1cc2c(CC(=O)O)cccc2n1C(=O)c1ccc(OCC2Oc3ccccc3O2)cc1 | 0.03 µM | 0.05 µM | 0.25 µM | 0.0094 µM | 0.75 µM | 0.78 µM | > 10 µM | – | –
11 | Cc1cc2c(CC(=O)O)cccc2n1C(=O)c1ccc(OCC2COc3ccccc3C2)cc1 (stereo unspecified) | 0.39 µM | – | 0.28 µM | 0.18 µM | > 10 µM | > 10 µM | 3.5 µM | – | –
12 | Cc1cc2c(CC(=O)O)cccc2n1C(=O)c1ccc(OCc2ccccc2)cc1 | – | – | 0.33 µM | 0.06 µM | 1.2 µM | 1.2 µM | > 10 µM | 1.3 µM | –
13 | Cc1cc2c(CC(=O)O)cccc2n1C(=O)c1ccc(OC[C@@H]2CN(C)c3ccc(F)cc3O2)cc1 | 0.0053 µM | 0.00081 µM | 2.1 µM | 0.023 µM | 1.7 µM | > 10 µM | > 10 µM | – | 60%
14 | Cc1cc2c(CC(=O)O)cccc2n1C(=O)c1ccc(OC[C@H]2CN(C)c3ccccc3O2)cc1 | 0.17 µM | 0.01 µM | 0.41 µM | 0.23 µM | > 10 µM | > 10 µM | > 10 µM | – | –
